What was measured:
[1] = molecular target: T1, EphA3 (Homo sapiens, UniProt P29320); assay: PamChip tyrosine kinase microarray, EphA3; type: biochemical; settings: 4e 0.1 µM, HL60 lysate
T1 construct: endogenous in cells; host or cells: HL60 lysate
T1 sequence (P29320 21-983): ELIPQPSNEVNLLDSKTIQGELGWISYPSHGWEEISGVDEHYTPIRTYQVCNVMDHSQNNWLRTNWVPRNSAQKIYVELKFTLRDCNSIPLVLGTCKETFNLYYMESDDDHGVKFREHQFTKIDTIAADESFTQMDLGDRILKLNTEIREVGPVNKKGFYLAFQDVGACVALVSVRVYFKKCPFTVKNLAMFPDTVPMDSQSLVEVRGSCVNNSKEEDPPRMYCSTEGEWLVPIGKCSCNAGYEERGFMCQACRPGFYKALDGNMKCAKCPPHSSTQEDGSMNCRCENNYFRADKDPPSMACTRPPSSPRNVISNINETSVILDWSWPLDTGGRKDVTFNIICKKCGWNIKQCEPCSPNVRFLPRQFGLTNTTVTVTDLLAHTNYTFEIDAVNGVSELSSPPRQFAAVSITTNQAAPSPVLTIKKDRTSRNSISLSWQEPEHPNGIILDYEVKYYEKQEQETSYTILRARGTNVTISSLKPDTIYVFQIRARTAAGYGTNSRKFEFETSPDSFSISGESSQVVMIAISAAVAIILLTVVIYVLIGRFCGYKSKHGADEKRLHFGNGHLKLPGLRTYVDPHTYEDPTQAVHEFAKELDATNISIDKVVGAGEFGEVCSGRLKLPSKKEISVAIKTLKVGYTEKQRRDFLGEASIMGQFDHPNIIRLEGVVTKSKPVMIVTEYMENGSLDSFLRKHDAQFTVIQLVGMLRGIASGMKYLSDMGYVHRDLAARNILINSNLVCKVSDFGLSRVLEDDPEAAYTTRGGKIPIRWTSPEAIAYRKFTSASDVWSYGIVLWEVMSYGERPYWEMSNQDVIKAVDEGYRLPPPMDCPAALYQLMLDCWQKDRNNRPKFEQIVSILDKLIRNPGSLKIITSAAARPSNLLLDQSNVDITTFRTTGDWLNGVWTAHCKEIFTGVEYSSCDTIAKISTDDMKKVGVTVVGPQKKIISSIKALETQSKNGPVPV
Method: (§1) The changes in kinase activities induced by treatment with 4e were monitored within the HL60 cell lines using PamGene’s (Hertogenbosch, Netherlands) PamChip® peptide microarray profiler, which quantifies the activities of 144 tyrosine kinases (YK) ([29], [30]) (Figure 7). Results are provided as a log fold change (LFC) heatmap and Mean Kinase Statistic. From the LFC it is apparent that compound 4e, at a concentration of 0.1 µM, induced sizable changes to the activity of several kinases within the cell signaling YK profile (Figure 7A).
(§2) An Upstream Kinase tool was used to generate a putative list of kinases responsible for phosphorylating the phospho-sites on the PamChip (Figure 7B) ([31]). It is an interpretation and is highly dependent on the contents of the underlying phosphorylation databases. A Kinase Score was used for ranking kinases based on their significance and specificity in terms of the set of peptides used for the corresponding kinase. Kinase Statistics indicates the overall change of the peptide set that represents the kinase. Kinase statistics value <0 indicates lower kinase activity in the compound spiked lysate and vice versa ([32], [33]). Table 5 lists the 20 most changed kinases within treated HL60 cell lysates by 0.1 μM 4e, ranked according to their Kinase Score.
(§3) The compound 4e was spiked into HL60 cell lysate at different concentrations (0.001, 0.01, 0.1, 1, 10 and 50 μM). In addition, DMSO was also spiked in HL60 lysate at low concentration (2% v/v) as control. Samples were profiled on PamGene’s Tyrosine Kinase (PTK) arrays in technical replicates, covering a total of 196 phosphorylation sites. Frozen HL60 cultured cell pellet was sent to PamGene. At PamGene, cells were lysed using a lysis buffer and proteases inhibitors cocktail. Protein concentration was measured using standard Bradford assay as per PamGene SOPs. These lysates were further used for generating the PTK activity profiles. For spiking, 4e was received as powder form and dissolved in DMSO at PamGene facility followed by storing at -20°C in small aliquots. PamGene used its in-house bioinformatics toolbox in combination with other methods to generate hypotheses of signaling pathways.

[2] = molecular target: T2, CSK (Homo sapiens, UniProt P41240); assay: PamChip tyrosine kinase microarray, CSK; type: biochemical; settings: 4e 0.1 µM, HL60 lysate
T2 construct: endogenous in cells; host or cells: HL60 lysate
Method: as §1, §2, §3

[3] = system: HL60 cells; assay: Cell cycle analysis (Hoechst 33342, flow cytometry); type: cell-based, human; settings: HL60, 5 µM, 48 h
Method: The effect of 4e on the distribution of cells in different phases of the cell cycle was determined by flow cytometry using Hoescht 33342 staining in HL60 cells.
HL60 cells (3.5 x 10^5) were seeded in a 6-well plate, were treated with appropriate concentrations of the test compound after attachment, and were incubated at 37°C for 48 h. The treated cells were then collected and washed twice with ice-cold PBS (1X). The washed cells were fixed using 80% ice cold ethanol and stored at -20°C overnight. Fixed cells were washed twice with PBS before staining with 10 µg of Hoechst 33342 (10 µg/mL; Thermo Fisher Scientific, Inc.) and incubated in the dark for 30 min on ice. Cells were washed again with PBS wash and a minimum total of 20,000 events were collected and analyzed using a BD FACSAria III flow cytometer (BD Biosciences, USA). Flowlogic software version 7.0/7.2.1 (Inivai Technologies Pvt Ltd, Victoria, Australia) was used to obtain the percentage distribution of cells in G1, S, and G2/M phases in the singlet-gated population. For validation purpose, we included KX2-391 as a positive reference in this assay.

[4] = system: JNK1/2/3; assay: Human phosphokinase array, JNK1/2/3; type: cell-based
Source text: The kinome tree representation (Figure 7C), which was generated by raising the Kinase Score cut-off to >1.2, confirmed that, unlike tirbanibulin and our prototype molecule KX1-136, 4e’s effects were more observable on kinases other than the Src family such as the Eph and TEC families. […] Therefore, we screened compound 4e using the Human Phospho-Kinase Array® kit from R&D systems (Minneapolis, MN, USA). In this system, 35 phosphorylated YK and serine-threonine kinase (STK) enzymes in the untreated (control) and treated (test) HL60 cell lysates were captured on nitrocellulose membrane, pre-spotted with phosphokinase-specific capture antibodies, and then visualized by detection antibody cocktails (Figure 8). The difference in the spot intensity between untreated (control) and treated cells is proportional to change in the amount of the phosphorylated protein induced by 4e.
The phosphorylation profile of 48 kinases was performed using the Proteome Profiler Human Phospho-Kinase Antibody Array Kit by R&D Systems (Minneapolis, MN, USA) according to the protocol. Briefly, the total cellular protein was extracted using the Lysis buffer and was quantified using Bio-Rad DC Protein Assay kit (Hercules, CA, USA). Nitrocellulose membrane set (A&B), pre-spotted with kinase-specific capture antibodies, were first blocked with Array Buffer-1 at RT for 30 min on a rocking platform shaker. Approximately 600 µg of protein concentrate was diluted in the buffer provided and was added onto the membrane set, and the membranes were incubated overnight at 4°C in an 8-well plate. Subsequently, membranes were washed with Wash Buffer and incubated with appropriate Detection Antibody cocktails for 2 h at RT. Streptavadin-HRP (1:2000) was added onto membranes and incubated for 30 min at RT. Membranes were washed, and Chemiluminescent Detection Reagents 1&2 were applied in equal volumes for detection. The signals were detected on C-DiGit®Blot Scanner (LI-COR, Odyssey Imaging Systems, Lincoln, Nebraska, USA) using Image Studio 5.0 software.

T2 sequence (P41240 whole entry): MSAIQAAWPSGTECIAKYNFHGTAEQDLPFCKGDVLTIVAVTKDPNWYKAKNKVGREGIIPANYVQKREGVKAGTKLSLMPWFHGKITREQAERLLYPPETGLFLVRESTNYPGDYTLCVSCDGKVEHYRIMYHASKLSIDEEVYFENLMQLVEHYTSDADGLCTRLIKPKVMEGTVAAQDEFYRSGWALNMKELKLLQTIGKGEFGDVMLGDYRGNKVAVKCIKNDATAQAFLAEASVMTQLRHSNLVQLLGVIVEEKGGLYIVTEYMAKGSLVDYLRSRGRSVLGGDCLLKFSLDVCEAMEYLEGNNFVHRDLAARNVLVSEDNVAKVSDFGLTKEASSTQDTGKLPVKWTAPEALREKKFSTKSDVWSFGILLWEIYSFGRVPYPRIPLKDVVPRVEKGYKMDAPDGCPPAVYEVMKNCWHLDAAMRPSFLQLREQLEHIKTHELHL

O=C(Cc1ccc(NC(=O)c2cccc(Cl)c2)cc1)NCc1ccccc1 [Compound 4e, N-(4-(2-(benzylamino)-2-oxoethyl)phenyl)-3-chlorobenzamide]
Mean Final Score [1]: 1.9564 | Mean Kinase Statistic [1]: -0.6074 | Mean Significance Score [1]: 1.4547 | Mean Specificity Score [1]: 0.5017 | Mean Final Score [2]: 1.9356 | Mean Kinase Statistic [2]: -0.5346 | Mean Significance Score [2]: 1.2107 | Mean Specificity Score [2]: 0.7249 | Apoptosis (cell cycle profile) [3]: 14.66% | G2M population [3]: 24.51% | phosphokinase signal after 4e exposure, JNK1/2/3 ([4]; HL60 cell lysate, treated): 20.91 | % Change, JNK1/2/3 ([4]; treated vs untreated HL60): -50.61% | Change in Signal, JNK1/2/3 ([4]; treated vs untreated HL60): -21.43

Reference: article PMC9166630, “SAR Probing of KX2-391 Provided Analogues With Juxtaposed Activity Profile Against Major Oncogenic Kinases” (Frontiers in Oncology, 2022)
